Test results: patent publication EP4737450A1 (Longwood Pharmaceuticals (Hangzhou) Co., Ltd, priority 2023, dated 2025)

What was measured:
plasma kallikrein (PKa) [1] = target: T1, plasma kallikrein (PKa) (Homo sapiens, UniProt P03952); assay: Inhibitory activity against plasma kallikrein in vitro (fluorescence intensity enzyme assay, Pro-Phe-Arg-AMC substrate); assay type: biochemical; conditions: Pro-Phe-Arg-AMC substrate
T1 construct: purchased R & D 2497-SE
Outline: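 Fluorescence intensity enzyme assay with 10 nM enzyme and 60 µM Pro-Phe-Arg-AMC (final concentrations). Compounds in DMSO, tested in duplicate over a dose series. IC50 from nonlinear regression curve fitting.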

KLK1 = KLK1 (Homo sapiens, UniProt P06870); assay: Inhibitory activity against KLK1 in vitro (biochemical assay)
Outline: (§1)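 Compounds were dispensed acoustically from DMSO and tested in duplicate. IC50 values came from nonlinear regression curve fitting.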

FXIa = FXIa (Homo sapiens, UniProt P03951); assay: Inhibitory activity against FXIa in vitro (biochemical assay)
Outline: as §1

plasma kallikrein (PKa) [2] = target: T1, plasma kallikrein (PKa); assay: PKa inhibition in kaolin-activated human platelet-poor plasma (PPP); assay type: biochemical; conditions: Pro-Phe-Arg-AMC substrate, fluorescence signal
Experimental: Test Example 2. Evaluation of the compounds of the present invention in terms of PKa Inhibition in Kaolin-Activated Human PPP: Platelet-poor plasma (PPP) obtained from human whole blood, anticoagulated with Na - Citrate, was incubated with various concentrations of the test compounds and 25, 75, 250, or 750 µg/mL kaolin in assay buffer for 20 minutes at 37°C, so that a concentration response of the test compounds was obtained with respect to various kaolin concentrations. The positive drug was diluted in accordance with the reference concentration and diluted 3-fold with the diluent as the first point.
50 nL of compounds were then transferred to a 384 assay plate containing 2 replicates per well. The 384 assay plate was centrifuged at 1000 rpm/min. 2.5 µL of human plasma working solution was added to each assay well. The 384 assay plate was centrifuged at 1000 RPM. 2.5 µL of kaolin working solution was added to each assay well. The 384 assay plate was centrifuged at 1000 RPM and incubated at 25°C for 20 minutes. 5 µL of Pro-Phe-Arg-AMC working solution was added to each assay well. The 384 assay plate was centrifuged at 1000 RPM and incubated at 25°C for 60 minutes. BMG reads the fluorescence signal.
The percent inhibition of the compound was calculated according to the following formula: [formula]

[3] = plasma kallikrein enzyme assay, read-out: PKa IC50
[4] = PKa IC50, plasma kallikrein enzyme assay

T1 sequence (P03952 391-638 limits assumed): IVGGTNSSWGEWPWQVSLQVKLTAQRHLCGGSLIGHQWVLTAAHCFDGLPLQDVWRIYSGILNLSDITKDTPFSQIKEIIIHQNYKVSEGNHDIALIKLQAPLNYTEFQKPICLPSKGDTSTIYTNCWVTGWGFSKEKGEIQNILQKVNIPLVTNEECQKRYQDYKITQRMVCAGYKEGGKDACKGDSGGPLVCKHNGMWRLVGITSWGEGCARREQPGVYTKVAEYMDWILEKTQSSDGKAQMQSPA
T1 sequence (P03952 20-390 partner limits assumed): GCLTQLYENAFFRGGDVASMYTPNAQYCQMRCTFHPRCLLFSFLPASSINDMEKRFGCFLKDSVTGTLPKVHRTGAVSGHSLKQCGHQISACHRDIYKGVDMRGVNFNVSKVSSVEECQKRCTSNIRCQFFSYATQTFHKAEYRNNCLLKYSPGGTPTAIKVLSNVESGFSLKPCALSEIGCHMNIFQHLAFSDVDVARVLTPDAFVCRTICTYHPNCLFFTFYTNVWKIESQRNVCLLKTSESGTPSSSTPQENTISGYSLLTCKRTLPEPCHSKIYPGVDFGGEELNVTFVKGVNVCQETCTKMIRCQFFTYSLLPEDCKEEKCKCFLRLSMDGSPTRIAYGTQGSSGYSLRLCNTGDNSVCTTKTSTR
FXIa, sequence (P03951 388-625 limits assumed): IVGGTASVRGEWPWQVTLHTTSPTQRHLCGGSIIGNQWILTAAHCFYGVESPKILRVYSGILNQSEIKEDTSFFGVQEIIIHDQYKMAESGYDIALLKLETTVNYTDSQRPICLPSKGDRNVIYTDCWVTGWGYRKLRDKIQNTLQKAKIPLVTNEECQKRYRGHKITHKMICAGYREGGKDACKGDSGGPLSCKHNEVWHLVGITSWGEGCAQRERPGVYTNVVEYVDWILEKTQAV
FXIa, sequence (P03951 19-387 partner limits assumed): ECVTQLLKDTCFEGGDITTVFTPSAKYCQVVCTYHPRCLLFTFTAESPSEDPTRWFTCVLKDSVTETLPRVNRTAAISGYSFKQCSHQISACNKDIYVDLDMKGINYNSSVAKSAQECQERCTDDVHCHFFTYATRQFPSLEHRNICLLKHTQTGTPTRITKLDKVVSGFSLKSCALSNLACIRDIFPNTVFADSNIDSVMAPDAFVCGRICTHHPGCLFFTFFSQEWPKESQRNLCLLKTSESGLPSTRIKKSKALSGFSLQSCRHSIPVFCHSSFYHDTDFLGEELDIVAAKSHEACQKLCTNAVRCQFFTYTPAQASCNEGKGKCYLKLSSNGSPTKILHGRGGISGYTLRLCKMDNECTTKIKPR
KLK1, sequence (P06870 25-262, species assumed): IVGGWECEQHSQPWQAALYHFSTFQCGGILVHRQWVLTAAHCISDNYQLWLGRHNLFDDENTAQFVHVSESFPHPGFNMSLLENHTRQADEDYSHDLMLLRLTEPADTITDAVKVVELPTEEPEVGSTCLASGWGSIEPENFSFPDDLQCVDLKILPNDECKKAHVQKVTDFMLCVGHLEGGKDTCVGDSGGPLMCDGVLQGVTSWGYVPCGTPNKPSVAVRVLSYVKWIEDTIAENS

| SMILES | IC50 (plasma kallikrein (PKa) [1]; [3]) [nM] | IC50 (KLK1; values given in µM) [µM] | IC50 (FXIa; values given in µM) [µM] | IC50 (plasma kallikrein (PKa) [2]) [nM] | IC50 (KLK1; values in nM) [µM] | IC50 (FXIa; values in nM) [µM] | IC50 (plasma kallikrein (PKa) [1]; [4]) [nM] |
| --- | --- | --- | --- | --- | --- | --- | --- |
| N#Cc1cccc([C@@H](NCC2CC2)c2ccc(F)c(NC(=O)c3cc(C(F)(F)F)nn3-c3cccc(CN)c3)c2)c1 [Berotralstat, reference compound] | 2.21 | > 10 | > 10 | 56.3 |  |  |  |
| Cc1cc(N)nc(C)c1CNC(=O)c1cn(Cc2ccc(Cn3ccccc3=O)cc2)nn1 [Compound 1, N-((6-amino-2,4-dimethylpyridin-3-yl)methyl)-1-(4-((2-oxopyridin-1(2H)-yl)methyl)benzyl)-1H-1,2,3-triazole-4-carboxamide] | 0.178 | > 10 | > 10 | 7.6 |  |  |  |
| COCc1nn(Cc2ccc(Cn3ccccc3=O)cc2)cc1C(=O)NCc1c(C)cc(N)nc1C [Compound 2, N-((6-amino-2,4-dimethylpyridin-3-yl)methyl)-3-(methoxymethyl)-1-(4-((2-oxopyridin-1(2H)-yl)methyl)benzyl)-1H-pyrazole-4-carboxamide] | 0.517 | > 10 | > 10 | 6.8 |  |  |  |
| Cc1cc(N)nc(C)c1CNC(=O)c1nn(Cc2ccc(Cn3ccccc3=O)cc2)cc1C1CCCO1 (stereo not shown) [Compound 4, N-((6-amino-2,4-dimethylpyridin-3-yl)methyl)-1-(4-((2-oxopyridin-1(2H)-yl)methyl)benzyl)-4-(tetrahydrofuran-2-yl)-1H-pyrazole-3-carboxamide] | 0.155 | > 10 | > 10 | 13.3 |  |  |  |
| Cc1cc(N)nc(C)c1CNC(=O)c1ncn(Cc2ccc(Cn3ccccc3=O)cc2)n1 [Compound 11, N-((6-amino-2,4-dimethylpyridin-3-yl)methyl)-1-(4-((2-oxopyridin-1(2H)-yl)methyl)benzyl)-1H-1,2,4-triazole-3-carboxamide] | 0.03 |  |  | 6.08 | > 0.5 | > 0.5 |  |
| COCc1nn(Cc2ccc(Cn3cccn3)cc2)cc1C(=O)NCc1c(C)cc(N)nc1C [Compound 14, 1-(4-((1H-pyrazol-1-yl)methyl)benzyl)-N-((6-amino-2,4-dimethylpyridin-3-yl)methyl)-3-(methoxymethyl)-1H-pyrazol-4-carboxamide] | 0.213 |  |  | 7.51 | > 0.5 | > 0.5 |  |
| Cc1cc(N)nc(C)c1CNC(=O)c1cnc(Cc2cn3cc(C4CC4)ccc3n2)o1 [Compound 18] | 0.408 | > 10 | > 10 | 7.92 |  |  |  |
| Cc1cc(N)nc(C)c1CNC(=O)c1coc(Cc2cn3cc(C4CC4)ccc3n2)n1 [Compound 19] | 0.633 | > 10 | > 10 | 23.5 |  |  |  |
| Cc1cc(N)nc(C)c1CNC(=O)c1ncn(Cc2ccc(Cn3cc(F)ccc3=O)cc2)n1 [Compound 23] | < 0.05 | > 10 | > 10 | 7.99 |  |  |  |
| N=C(N)c1ccc(CNC(=O)c2coc(Cc3cn4cc(C5CC5)ccc4n3)n2)cc1 [Compound 37] | 0.16 | > 10 | > 10 | 6.7 |  |  |  |
| COCc1nn(Cc2cn3cc(C4CC4)ccc3n2)cc1C(=O)NCc1ccc(C(=N)N)cc1 [Compound 39] | < 0.05 | > 10 | > 10 | 73.4 |  |  |  |
| N#Cc1cc(N2CC3C(C2)C3(F)F)ccc1Cn1cc(C(=O)NCc2ccc(C(=N)N)cc2)cn1 (stereo not shown) [Compound 40] | < 0.05 |  |  | 2.15 |  |  |  |
| Nc1nccc2cc(CNC(=O)c3ncn(Cc4ccc(Cn5ccccc5=O)cc4)n3)ccc12 [Compound 76] | 0.96 | > 10 | > 10 | 12.5 |  |  |  |
| N=C(N)c1ccc(CNC(=O)c2cnn(Cc3ccc(CC4CC4)cc3)c2C(F)(F)F)cc1 [Compound 109] | 0.35 | > 10 | > 10 | 8.38 |  |  |  |
| N=C(N)c1ccc(CNC(=O)c2cnn(Cc3ccc(Oc4ccccc4)cc3)c2)cc1 [Compound 128] |  | > 10 | > 10 | 13.2 |  |  | 0.56 |
| N=C(N)c1ccc(CNC(=O)c2cnn(Cc3cc(F)c(CC4CC4)c(F)c3)c2)cc1 [Compound 380] | 0.27 | > 10 | > 10 |  |  |  |  |

| SMILES | IC50 (plasma kallikrein (PKa) [1]; [3]) [nM] | IC50 (KLK1; values given in µM) [µM] | IC50 (FXIa; values given in µM) [µM] | IC50 (plasma kallikrein (PKa) [2]) [nM] | IC50 (KLK1; values in nM) [µM] | IC50 (FXIa; values in nM) [µM] | IC50 (plasma kallikrein (PKa) [1]; [4]) [nM] |
| --- | --- | --- | --- | --- | --- | --- | --- |
| Cc1cc(Cn2cc(C(=O)NCc3ccc(C(=N)N)cc3)cn2)cc(C)c1CC1CC1 [Compound 381] | 0.03 | > 10 | > 10 |  |  |  |  |
| N=C(N)c1ccc(CNC(=O)c2cnn(Cc3ccc(N4CC5C(C4)C5(F)F)c(C(F)(F)F)c3)c2)cc1 (stereo not shown) [Compound 382] | 0.15 | > 10 | > 10 |  |  |  |  |
| CN1CCc2cnc(CNC(=O)c3cnn(Cc4ccc(Cn5ccccc5=O)cc4)c3)c(F)c21 [Compound 383] |  | > 10 | > 10 |  |  |  | 1.39 |
| O=C(NCc1ncc2c(c1F)NCC2)c1cnn(Cc2ccc(Cn3ccccc3=O)cc2)c1 [Compound 384] | 2.17 | > 10 | > 10 |  |  |  |  |
| N=C(N)c1ccc(CNC(=O)c2cnn(Cc3ccc(OCC4CC4)c(C(F)(F)F)c3)c2)cc1 [Compound 385] | 0.88 | > 10 | > 10 |  |  |  |  |
| N=C(N)c1ccc(CNC(=O)c2cnn(Cc3ccc(OC4CCCC4)c(C(F)(F)F)c3)c2)cc1 [Compound 386] | 1.68 | > 10 | > 10 |  |  |  |  |
| N=C(N)c1ccc(CNC(=O)c2cnn(Cc3ccc(N4CCC(F)(F)CC4)c(C(F)(F)F)c3)c2)cc1 [Compound 387] | 0.08 | > 10 | > 10 |  |  |  |  |
| N=C(N)c1ccc(CNC(=O)c2cnn(Cc3ccc(N4CCOCC4)c(C(F)(F)F)c3)c2)cc1 [Compound 388] | 0.18 | > 10 | > 10 |  |  |  |  |
| CN1CCc2cnc(CNC(=O)c3cn(Cc4ccc(Cn5ccccc5=O)cc4)nc3C(F)(F)F)c(F)c21 [Compound 389] | 1.45 | > 10 | > 10 |  |  |  |  |
| O=C(NCc1ncc2c(c1F)NCC2)c1cn(Cc2ccc(Cn3ccccc3=O)cc2)nc1C(F)(F)F [Compound 390] | 2.02 | > 10 | > 10 |  |  |  |  |
| COCc1nn(Cc2ccc(Cn3ccccc3=O)cc2)cc1C(=O)NCc1ncc2c(c1F)N(C)CC2 [Compound 391] | 1.4 | > 10 | > 10 |  |  |  |  |
| COCc1nn(Cc2ccc(Cn3ccccc3=O)cc2)cc1C(=O)NCc1ncc2c(c1F)NCC2 [Compound 392] | 2.44 | > 10 | > 10 |  |  |  |  |
| N=C(N)c1ccc(CNC(=O)c2cnn(Cc3cc(Cl)c(C(=O)C4CC4)c(Cl)c3)c2)cc1 [Compound 393] | 1.05 | > 10 | > 10 |  |  |  |  |
| N=C(N)c1ccc(CNC(=O)c2cnn(Cc3cc(F)c(C(=O)C4CC4)c(F)c3)c2)cc1 [Compound 394] | 1.56 | > 10 | > 10 |  |  |  |  |
| O=C(NCc1ncc2c(c1F)OCC2)c1cnn(Cc2ccc(Cn3ccccc3=O)cc2)c1 [Compound 395] | 1.68 | > 10 | > 10 |  |  |  |  |
| COCc1nn(Cc2ccc(Cn3ccccc3=O)cc2)cc1C(=O)NCc1ncc2c(c1F)OCC2 [Compound 396] | 2.1 | > 10 | > 10 |  |  |  |  |
